Entries after “also recorded” stand apart in the source; their conditions may differ.
Assays:
[1] = tested on: optimal tandem BRCT domain-interacting phosphopeptide, YDIpSQVFPF, or its non-phosphorylated counterpart; experiment: Peptide binding: in vitro translated [35S] BRCA1 BRCT constructs on bead-immobilized phosphorylated or non-phosphorylated peptide; details: in vitro transcribed and translated protein; for binding to phosphorylated peptide: bead-immobilized biotinylated phosphopeptide, SDS-PAGE and autoradiography; for binding to non-phosphorylated peptide: bead-immobilized biotinylated non-phosphorylated peptide
Protocol: An optimal phosphopeptide for binding the BRCA1 BRCTs was determined by oriented peptide library screening as described previously. This peptide was synthesized in both its phosphorylated and non-phosphorylated form with a biotin group at the N-terminus using N-α-FMOC-protected amino acids and standard BOP/HOBt coupling chemistry. These peptides were conjugated to streptavidin coated beads (Sigma-Aldrich). The wild-type and mutant BRCA1 BRCT domain-containing constructs (residues 1313-1863) were transcribed and translated in vitro in the presence of [^35S]-methionine using the TNT kit (Promega). The bead-immobilized peptides (10 μL of beads) were added to 10 μL of the in vitro translated [^35S]-labeled protein pool in 150 μL binding buffer (50 mM Tris-HCl (pH7.6), 150 mM NaCl, 0.5% NP-40, 1 mM EDTA, 2 mM DTT, 8 μg/mL pepstatin, 8 μg mL^−1 aprotinin, 8 μg mL^−1 leupeptin, 800 μM Na3VO4, 25 mM NaF). After incubation at 4° C. for 3 hours, the beads were washed three times with 200 μL of binding buffer prior to analysis by SDS-PAGE (12.5% (w/v)) and autoradiography.

[2] = tested on: cholinesterases; details: by cholinesterases; cited from earlier work
[3] = tested on: U2OS cells; experiment: Immunofluorescence: localization and nuclear foci formation of myc-tagged BRCA1 tandem BRCT domains; assay type: cell-based; details: for co-localization with anti-pSer/pThr-Gln epitope antibody staining / nuclear foci formation after DNA damage: U2OS cells, 10 Gy γ-irradiation; for co-localization with anti-pSer/pThr-Gln epitope antibody staining: 2 hrs; for nuclear foci formation after DNA damage: 2 hrs later permeabilized, fixed and stained
Protocol: U2OS cells were seeded onto 18 mm^2 coverslips and transfected with the BRCA1 BRCT construct (residues 1313-1863) and various mutants using FuGene6 transfection reagent (Roche) according to manufacturer's protocol. Thirty hours following transfection, the cells were either treated with 10 Gy of ionizing radiation or mock irradiated and allowed to recover for 120 minutes. Cells were fixed in 3% (v/v) paraformaldehyde/2% (w/v) sucrose for 15 min at RT and permeabilized with a 0.5% (v/v) Triton X-100 solution containing 20 mM Tris-HCl (pH 7.8), 75 mM NaCl, 300 mM sucrose, and 3 mM MgCl2 for 15 min at RT. When necessary, proteins were extracted after IR treatment as described previously. In brief, cells were incubated with extraction buffer (10 mM PIPES pH6.8, 100 mM NaCl, 300 mM sucrose, 3 mM MgCl2, 1 mM EGTA, 0.5% (v/v) Triton X-100) for 5 minutes on ice followed by incubation with extraction stripping buffer (10 mM Tris-HCl pH 7.4, 10 mM NaCl, 3 mM MgCl2, 0.5% (v/v) Triton X-100) for 5 minutes on ice followed by successive washes in ice cold PBS. Slides were fixed as above, stained with primary antibodies at 37° C. for 20 min, then stained with a anti-mouse or anti-rabbit secondary antibody for 20 min (Molecular Probes) at 37° C. Primary antibodies used were mouse anti-myc (Cell Signaling) and rabbit anti-(pSer/pThr)Gln (Cell Signaling). Images were collected on a Axioplan2 microscope (Carl Zeiss) and processed using OpenLab software (Improvision).

[4] = target: T1, endogenous BACH1 (Homo sapiens, UniProt Q9BX63); experiment: Co-immunoprecipitation of BRCA1 BRCTs and BACH1 in transfected U2OS cells; assay type: cell-based; details: U2OS cells transfected with myc-tagged BRCA1 construct; anti-myc immunoprecipitation, anti-BACH1 blot
T1 construct: endogenous in cells; host or cells: U2OS cells (BACH1 endogenous; the BRCA1 fragment transfected from pcDNA3 with FuGene6)
T1 sequence (Q9BX63 1-1249): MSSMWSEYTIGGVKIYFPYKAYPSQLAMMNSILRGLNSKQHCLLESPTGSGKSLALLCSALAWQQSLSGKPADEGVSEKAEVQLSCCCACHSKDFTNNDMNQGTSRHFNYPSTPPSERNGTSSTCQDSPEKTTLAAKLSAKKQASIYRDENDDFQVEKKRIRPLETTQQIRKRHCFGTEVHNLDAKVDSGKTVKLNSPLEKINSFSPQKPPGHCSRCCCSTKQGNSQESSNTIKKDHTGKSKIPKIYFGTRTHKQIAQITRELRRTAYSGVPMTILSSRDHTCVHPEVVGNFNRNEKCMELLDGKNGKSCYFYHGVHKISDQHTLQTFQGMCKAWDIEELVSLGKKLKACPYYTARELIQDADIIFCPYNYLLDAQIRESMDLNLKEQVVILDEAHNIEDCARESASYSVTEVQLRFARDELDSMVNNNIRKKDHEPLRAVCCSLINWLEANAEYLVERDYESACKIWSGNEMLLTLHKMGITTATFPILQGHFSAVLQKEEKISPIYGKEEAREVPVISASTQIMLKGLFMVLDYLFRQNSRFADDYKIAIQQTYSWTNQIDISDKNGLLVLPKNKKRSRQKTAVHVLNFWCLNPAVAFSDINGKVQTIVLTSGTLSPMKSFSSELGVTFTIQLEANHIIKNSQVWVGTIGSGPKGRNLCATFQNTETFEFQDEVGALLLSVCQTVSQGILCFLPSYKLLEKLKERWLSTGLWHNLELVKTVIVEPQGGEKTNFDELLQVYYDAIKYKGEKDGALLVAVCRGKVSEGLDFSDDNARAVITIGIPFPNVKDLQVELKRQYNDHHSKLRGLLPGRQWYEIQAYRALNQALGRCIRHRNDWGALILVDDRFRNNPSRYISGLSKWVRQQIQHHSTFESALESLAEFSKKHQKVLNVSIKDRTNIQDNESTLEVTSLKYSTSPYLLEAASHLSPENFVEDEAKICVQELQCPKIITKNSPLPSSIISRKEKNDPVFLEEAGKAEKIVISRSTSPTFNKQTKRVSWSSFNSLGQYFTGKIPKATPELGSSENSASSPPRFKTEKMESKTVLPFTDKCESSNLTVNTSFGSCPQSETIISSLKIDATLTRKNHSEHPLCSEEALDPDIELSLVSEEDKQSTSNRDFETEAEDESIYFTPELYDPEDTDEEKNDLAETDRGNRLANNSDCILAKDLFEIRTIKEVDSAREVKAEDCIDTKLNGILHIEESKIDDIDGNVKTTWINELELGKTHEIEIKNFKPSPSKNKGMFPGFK
Protocol: U2OS cells were grown to 50% confluency in 100 cm^2 dishes and transfected with the myc-tagged wild-type or mutant BRCA1 BRCT constructs (residues 1313-1863) (SEQ ID NO.: 6) using FuGene6 transfection reagent (Roche) according to manufacturer's protocol. Cells were collected 30 hrs following transfection, lysed in lysis buffer (50 mM Tris-HCl (pH7.6), 150 mM NaCl, 1.0% NP-40, 5 mM EDTA, 2 mM DTT, 8 μg/mL AEBSF, 8 μg mL^−1 aprotinin, 8 μg mL^−1 leupeptin, 2 mM Na3VO4, 10 mM NaF and the phosphatase inhibitors microcystin and okadaic acid). Lysates containing equal amounts of protein (3 mg) was incubated with 3 μL of a mouse anti-myc antibody (Cell Signaling) for 2 hr at 4° C. and then 10 μL of protein G-sepharose beads (Sigma-Aldrich) were added and samples incubated for an additional 2 hr at 4° C. Beads were washed four times with lysis buffer, bound proteins eluted in SDS-PAGE sample buffer, analysed on 6% polyacrylamide gels, transferred to PVDF membrane, and detected by blotting with rabbit anti-BACH1 antibody. A portion of the lysates were also run and blotted with the anti-BACH1 antibody and the anti-myc antibody to further ensure equal protein loading.

[5] = target: T2, BACH1 phosphopeptide spot array (Homo sapiens); experiment: Peptide filter array (spot blot) with GST-BRCA1 BRCTs; assay type: binding; details: 0.25 μM GST-BRCA1 BRCTs M1775R, 10 times the protein of wild type
T2 construct: made in house; host or cells: bacteria (pGEX clone, IPTG induction)
Protocol: An ABIMED peptide arrayer with a computer controlled Gilson diluter and liquid handling robot was used to synthesize peptides onto an amino-PEG cellulose membrane using N-α-FMOC-protected amino acids and DIC/HOBT coupling chemistry. The membranes were blocked in 5% (w/v) milk in Tris-buffered saline containing 0.1% (v/v) Tween-20 (TBS-T) for 1 hr at room temperature, incubated with 0.025 μM GST-BRCA1 BRCTs or 0.25 μM GST-BRCA1 BRCTs M1775R (residues 1633-1863) in 5% (w/v) milk, 50 mM Tris-HCl (pH 7.6), 150 mM NaCl, 2 mM EDTA, 2 mM DTT for 1 hr at room temperature and washed four times with TBS-T. The membranes were then incubated with anti-GST conjugated HRP (Amersham) in 5% (w/v) milk/TBS-T for 1 hr at room temperature, washed five times with TBS-T, and binding analysed by ECL (Perkin-Elmer).

binding to phosphorylated peptide [1]	Compound	co-localization with anti-pSer/pThr-Gln epitope antibody staining [3]	nuclear foci formation after DNA damage [3]	other results
complete loss of phosphopeptide binding	5382InsC: BRCA1 frameshift mutation that results in a stop codon at position 1829 (SEQ ID NO.: 22)			
	C[C@H]1C[C@@H]2[C@H]([C@@H](O)C[C@@]3(C)[C@H]2CC[C@]3(O)C(=O)COC(=O)CCC(=O)[O-])[C@@]2(C)C=CC(=O)C=C12.[Na+] [Methylprednisolone sodium succinate ester]			hydrolysis in vivo to free methylprednisolone [2]: rapidly and extensively hydrolysed
complete loss of phosphopeptide binding	G1738E: cancer-linked BRCA1 tandem BRCT domain mutant (SEQ ID NO.: 17)			
complete loss of phosphopeptide binding	M1775R: cancer-associated BRCA1 tandem BRCT domain mutant (SEQ ID NO.: 10)	less co-localization with pSer/pThr-Gln staining foci than the wild-type protein	also formed punctate nuclear foci, although these were slightly reduced in number; also recorded: can still form nuclear foci after DNA damage	in vivo interaction with full-length endogenous BACH1 [4]: completely loses the ability to interact with wild-type BACH1; binding to BACH1 phosphopeptide in which the +3 Phe is mutated to Asp or Glu [5]: bind weakly; also recorded: binds weakly to phosphopeptides with altered motif specificity
complete loss of phosphopeptide binding	P1749R: cancer-linked BRCA1 tandem BRCT domain mutant (SEQ ID NO.: 18)			
completely abolished the interaction	S1655A/K1702M: phosphopeptide-binding double mutant of BRCA1 tandem BRCT domains (SEQ ID NO.: 20)	completely failed to co-localize	only faint staining with a very fine granular pattern	nuclear foci, in words ([3]; un-irradiated U2OS cells, Triton X-100 extracted prior to fixation): no foci were observed
clearly bind	Wild-type BRCA1 tandem BRCT domains: myc-tagged human BRCA1 BRCT construct, residues 1313-1863, with SV40 nuclear localization sequence; GST fusion of residues 1633-1863 for the filter array	largely co-localized	demonstrated sharp punctate nuclear foci	in vivo interaction with full-length endogenous BACH1 [4]: easily detected; binding to non-phosphorylated peptide [1]: not non-phosphorylated peptides
complete loss of phosphopeptide binding	Y1853X: BRCA1 BRCT mutant which truncates the last 11 residues (SEQ ID NO.: 21)			

Compound	binding to phosphorylated peptide [1]	co-localization with anti-pSer/pThr-Gln epitope antibody staining [3]	nuclear foci formation after DNA damage [3]	other results
R1699Q: BRCA1 tandem BRCT domain mutant detected in breast cancer patients (SEQ ID NO.: 14)	retained a small degree of binding			binding to non-phosphorylated peptide [1]: weak phospho-independent binding; also recorded: bound to both phosphorylated and non-phosphorylated peptides
